From patent US20100267720A1, “Crystalline Forms of 2-Hydroxy-3- [5- (Morpholin- 4- Ylmethyl) Pyridin-2-YL] IH- Indole- 5 -Carbonitrile Citrate” (ASTRAZENECA AB, priority 2007, published 2010) come the findings set out here.

Structures are written as SMILES.

Data set [1] in a line: Hygroscopicity by Dynamic Vapour Sorption Analysis (DVS). Particulars: for moisture uptake: 25° C. It counts as physicochemical. The method, then: The studies were undertaken using Dynamic Vapour Sorption Apparatus (DVS, Surface Measurement Systems, London UK). The apparatus consists of Cahn micobalance housed inside a temperature-controlled cabinet. All experiments were performed at 25° C. The DVS was used to characterize the moisture uptake (w/w %) at different relative humidities (RH). Samples (5-10 mg) were weighed directly into the DSV sample cup and exposed to different relative humidities.

Data set [2] is described as follows: Chemical stability of the salt forms. Particulars: compared with the hydrochloride salt of WO 03/082853. It counts as physicochemical. An excerpt:
The term “chemical stability” means that the compound can be stored in an isolated form, or in the form of a formulation in which it is provided in admixture with pharmaceutically acceptable carriers, diluents or adjuvants (e.g., in an oral dosage form, such as tablet, capsule, etc.), under normal storage conditions, with little or no chemical degradation or decomposition.

[3] abbreviates: 40% relative humidity (RH), citrate.
The mark [4] stands for this setting: 60% relative humidity (RH), citrate.
The mark [5] stands for this setting: 80% relative humidity (RH), citrate.

Regarding `N#Cc1ccc2[nH]c(O)c(-c3ccc(CN4CCOCC4)cn3)c2c1.O=C(O)CC(O)(CC(=O)O)C(=O)O` [Citrate Form D, 2-Hydroxy-3-[5-(morpholin-4-ylmethyl)pyridin-2-yl]1H-indole-5-carbonitrile citrate], the figures for the moisture uptake in data set [1] (setting [3]), in data set [1] (setting [4]) and in data set [1] (setting [5]) were 3.2 w/w %, 3.6 w/w % and 3.7 w/w %, respectively.
In the case of `N#Cc1ccc2[nH]c(O)c(-c3ccc(CN4CCOCC4)cn3)c2c1.O=C(O)CC(O)(CC(=O)O)C(=O)O` [2-hydroxy-3-[5-(morpholin-4-ylmethyl)pyridin-2-yl]1H-indole-5-carbonitrile citrate], in data set [2], the “chemical stability (in words)” value is listed as “improved chemical stability over the hydrochloride salt”. The “hygroscopicity (in words)” value in data set [1] (listed as citrate salt of 2-hydroxy-3-[5-(morpholin-4-ylmethyl)pyridin-2-yl]1H-indole-5-ca) is on record as “lower hygroscopicity than the hydrochloride salt”.
Regarding `N#Cc1ccc2[nH]c(O)c(-c3ccc(CN4CCOCC4)cn3)c2c1.O=C(O)CC(O)(CC(=O)O)C(=O)O` [Citrate Form E, 2-Hydroxy-3-[5-(morpholin-4-ylmethyl)pyridin-2-yl]1H-indole-5-carbonitrile citrate], the moisture uptake in data set [1] (setting [3]) came out at 0.45 w/w %; in data set [1] (setting [4]) it was 0.52 w/w %; in data set [1] (setting [5]), 0.60 w/w %. Also, the “hygroscopicity (in words)” value in data set [1] (citrate) was “very low hygroscopicity”.
